Results: ChEMBL document CHEMBL4190255, “Novel celastrol derivatives with improved selectivity and enhanced antitumour activity: Design, synthesis and biological evaluation” (Eur J Med Chem, 2017)
Active and inactive are the calls of the source. No cut-off for these calls is given here.

How the values were obtained:
SK-OV-3 [1] = assay: Cell cycle arrest in human SKOV3 cells assessed as accumulation at S phase at IC50 concentration after 24 to 72 hrs by propidium iodide-based flow cytometry; type: functional
SK-OV-3 [2] = assay: Potentiation of cisplatin-induced cytotoxicity in human SKOV3 cells assessed as combination index by measuring reduction in cell viability at 0.6 uM after 72 hrs by MTT assay; type: functional
SK-OV-3 [3] = assay: Effect on total Akt levels in human SKOV3 cells at IC50 concentration after 72 hrs by Western blot analysis; type: ADME, cell-based; details: sk-ov-3, 72 h
SK-OV-3 [4] = assay: Induction of apoptosis in human SKOV3 cells assessed as early apoptotic cells at IC50 concentration after 72 hrs by Annexin V-FITC/propidium iodide double staining based flow cytometry (reference value: 4.7%); type: functional
SK-OV-3 [5] = assay: Induction of apoptosis in human SKOV3 assessed as effect on bcl2 levels at IC50 concentration after 72 hrs by Western blot analysis; type: functional, cell-based
SK-OV-3 [6] = assay: Potentiation of cisplatin-induced cytotoxicity in human SKOV3 cells assessed as combination index by measuring reduction in cell viability at 0.15 uM after 72 hrs by MTT assay; type: functional
MDA-MB-231 = assay: Antiproliferative activity against human MDA-MB-231 cells after 72 hrs by MTT assay; type: functional, cell-based; details: MDA-MB-231, 72 h
SK-OV-3 [7] = assay: Induction of apoptosis in human SKOV3 assessed as increase in cleaved caspase-8 levels at IC50 concentration after 72 hrs by Western blot analysis; type: functional, cell-based
SK-OV-3 [8] = assay: Induction of apoptosis in human SKOV3 cells at IC50 concentration after 24 hrs by Annexin V-FITC/propidium iodide double staining based flow cytometry; type: functional, cell-based
[9] = biological target: T1, Heat shock protein HSP90 (Homo sapiens) (UniProt P07900+P08238); assay: Inhibition of HSP90 in human SKOV3 cells assessed as decrease in phosphorylated Akt levels at IC50 concentration after 72 hrs by Western blot analysis; type: cell-based
A549 [10] = assay: Effect on wild-type p53 expression in human A549 cells at IC50 concentration after 72 hrs by Western blot analysis; type: ADME, cell-based; details: a549, 72 h
SK-OV-3 [11] = assay: Effect on total mTOR levels in human SKOV3 cells at IC50 concentration after 72 hrs by Western blot analysis; type: ADME, cell-based; details: sk-ov-3, 72 h
A549 [12] = assay: Antiproliferative activity against human A549 cells after 72 hrs by MTT assay; type: functional, cell-based; details: A549, 72 h
SK-OV-3 [13] = assay: Induction of apoptosis in human SKOV3 cells assessed as chromatin condensation at IC50 concentration after 48 hrs by Hoechst 33342 staining-based fluorescence microscopy; type: functional, cell-based
[14] = biological target: T1, Heat shock protein HSP90 (Homo sapiens); assay: Inhibition of HSP90 in human SKOV3 cells assessed as decrease in phosphorylated mTOR levels at IC50 concentration after 72 hrs by Western blot analysis; type: cell-based
SK-OV-3 [15] = assay: Antiproliferative activity against human SKOV3 cells after 72 hrs by MTT assay; type: functional, cell-based; details: SK-OV-3, 72 h
SK-OV-3 [16] = assay: Potentiation of cisplatin-induced cytotoxicity in human SKOV3 cells assessed as combination index by measuring reduction in cell viability at 4.8 uM after 72 hrs by MTT assay; type: functional
SK-OV-3 [17] = assay: Cell cycle arrest in human SKOV3 cells assessed as accumulation at G0/G1 phase at IC50 concentration after 24 to 72 hrs by propidium iodide-based flow cytometry; type: functional
[18] = biological target: T1, Heat shock protein HSP90 (Homo sapiens); assay: Inhibition of HSP90 protein levels in human SKOV3 cells at IC50 concentration after 72 hrs by Western blot analysis; type: cell-based
[19] = Selectivity index, ratio of IC50 for human BJ cells to IC50 for human A549 cells; type: toxicity; details: BJ cells versus A549 cells, read-out: Ratio IC50
MIA PaCa-2 = assay: Antiproliferative activity against human MIAPaCa2 cells after 72 hrs by MTT assay; type: functional, cell-based; details: MIA PaCa-2, 72 h
[20] = Selectivity index, ratio of IC50 for human BJ cells to IC50 for human MIAPaCa2 cells; type: toxicity; details: BJ cells versus MIAPaCa2 cells, read-out: Ratio IC50
SK-BR-3 = assay: Antiproliferative activity against human SKBR3 cells after 72 hrs by MTT assay; type: functional, cell-based; details: SK-BR-3, 72 h
BJ = assay: Cytotoxicity against human BJ cells assessed as reduction in cell viability after 72 hrs by MTT assay; type: cell-based
SK-OV-3 [21] = assay: Potentiation of cisplatin-induced cytotoxicity in human SKOV3 cells assessed as combination index by measuring reduction in cell viability at 1.2 uM after 72 hrs by MTT assay; type: functional
SK-OV-3 [22] = assay: Potentiation of cisplatin-induced cytotoxicity in human SKOV3 cells assessed as combination index by measuring reduction in cell viability at 0.3 uM after 72 hrs by MTT assay; type: functional
SK-OV-3 [23] = assay: Induction of apoptosis in human SKOV3 cells assessed as reduction in cell density at IC50 concentration after 48 hrs by Hoechst 33342 staining-based fluorescence microscopy; type: functional
SK-OV-3 [24] = assay: Induction of apoptosis in human SKOV3 assessed as decrease in procaspase-8 levels at IC50 concentration after 72 hrs by Western blot analysis; type: functional, cell-based
SK-OV-3 [25] = assay: Induction of apoptosis in human SKOV3 cells assessed as cell shrinkage at IC50 concentration after 48 hrs by Hoechst 33342 staining-based fluorescence microscopy; type: functional
SK-OV-3 [26] = assay: Induction of apoptosis in human SKOV3 assessed as effect on caspase-9 levels at IC50 concentration after 72 hrs by Western blot analysis; type: functional, cell-based
SK-OV-3 [27] = assay: Induction of apoptosis in human SKOV3 cells at IC50 concentration by Annexin V-FITC/propidium iodide double staining based flow cytometry; type: functional, cell-based; details: TDE = time-dependent effect
SK-OV-3 [28] = assay: Induction of apoptosis in human SKOV3 cells assessed as formation of apoptotic bodies at IC50 concentration after 48 hrs by Hoechst 33342 staining-based fluorescence microscopy; type: functional, cell-based
SK-OV-3 [29] = assay: Induction of apoptosis in human SKOV3 cells assessed as reduction in mutant p53 levels at IC50 concentration after 72 hrs by Western blot analysis; type: functional, cell-based
SK-OV-3 [30] = assay: Induction of apoptosis in human SKOV3 assessed as effect on bid levels at IC50 concentration after 72 hrs by Western blot analysis; type: functional, cell-based
SK-OV-3 [31] = assay: Induction of apoptosis in human SKOV3 assessed as increase in cleaved PARP levels at IC50 concentration after 72 hrs by Western blot analysis; type: functional, cell-based
SK-OV-3 [32] = assay: Induction of apoptosis in human SKOV3 cells assessed as early apoptotic cells at IC50 concentration after 48 hrs by Annexin V-FITC/propidium iodide double staining based flow cytometry (reference value: 4.5%); type: functional
SK-OV-3 [33] = assay: Induction of apoptosis in human SKOV3 assessed as effect on t-bid levels at IC50 concentration after 72 hrs by Western blot analysis; type: functional, cell-based
SK-OV-3 [34] = assay: Induction of apoptosis in human SKOV3 assessed as effect on bax levels at IC50 concentration after 72 hrs by Western blot analysis; type: functional, cell-based
SK-OV-3 [35] = assay: Cell cycle arrest in human SKOV3 cells assessed as accumulation at G2/M phase at IC50 concentration after 24 to 72 hrs by propidium iodide-based flow cytometry; type: functional
SK-OV-3 [36] = assay: Induction of apoptosis in human SKOV3 assessed as decrease in procaspase-3 levels at IC50 concentration after 72 hrs by Western blot analysis; type: functional, cell-based
SK-OV-3 [37] = assay: Potentiation of cisplatin-induced cytotoxicity in human SKOV3 cells assessed as combination index by measuring reduction in cell viability at 2.4 uM after 72 hrs by MTT assay; type: functional
[38] = Selectivity index, ratio of IC50 for human BJ cells to IC50 for human SKOV3 cells; type: toxicity; details: BJ cells versus SKOV3 cells, read-out: Ratio IC50

In the case of CC1=C(O)C(=O)C=C2C1=CC=C1[C@@]2(C)CC[C@@]2(C)[C@@H]3C[C@](C)(NC(=O)NCCc4cccc(Cl)c4)CC[C@]3(C)CC[C@]12C, the Activity (SK-OV-3 [1]) is reported as “inactive”, the CI (SK-OV-3 [2]) is reported as 1.44 and the Activity (SK-OV-3 [3]) is reported as “Non-Toxic”. For the same compound, the Activity (SK-OV-3 [4]) was 31.8%, the Activity (SK-OV-3 [5]) was “inactive” and the CI (SK-OV-3 [6]) was 1.047. The IC50 (MDA-MB-231) was 1150 nM, the Activity (SK-OV-3 [7]) was “Active” and the Activity (SK-OV-3 [8]) was “inactive”. The inhibition [9] was “Active”, the Activity (A549 [10]) was “Non-Toxic” and the Activity (SK-OV-3 [11]) was “Non-Toxic”. The IC50 (A549 [12]) was 1270 nM, the Activity (SK-OV-3 [13]) was “Active” and the inhibition [14] was “Active”. For the same compound, the IC50 (SK-OV-3 [15]) was 560 nM, the CI (SK-OV-3 [16]) was 0.7102 and the Activity (SK-OV-3 [17]) was “inactive”. For the same compound, the inhibition [18] was “Active”, the selectivity ratio [19] was 2.59 and the IC50 (MIA PaCa-2) was 350 nM. The selectivity ratio [20] was 9.31, the IC50 (SK-BR-3) was 780 nM and the IC50 (BJ) was 3290 nM. The CI (SK-OV-3 [21]) was 0.6855, the CI (SK-OV-3 [22]) was 1.374 and the Activity (SK-OV-3 [23]) was “Active”. For the same compound, the Activity (SK-OV-3 [24]) was “Active”, the Activity (SK-OV-3 [25]) was “Active” and the Activity (SK-OV-3 [26]) was “inactive”. The Activity (SK-OV-3 [27]) was “Tde”, the Activity (SK-OV-3 [28]) was “Active” and the Activity (SK-OV-3 [29]) was “Active”. For the same compound, the Activity (SK-OV-3 [30]) was “inactive”, the Activity (SK-OV-3 [31]) was “Active” and the Activity (SK-OV-3 [32]) was 15%. The Activity (SK-OV-3 [33]) was “inactive”, the Activity (SK-OV-3 [34]) was “inactive” and the Activity (SK-OV-3 [35]) was “inactive”. For the same compound, the Activity (SK-OV-3 [36]) was “Active”, the CI (SK-OV-3 [37]) was 0.575 and the selectivity ratio [38] was 5.81.
